According to patent US7258999B2, “PTH responsive gene” (Wyeth, priority 2002, dated 2007):

Columns and labels:
PAIGB mRNA = experiment: In situ hybridization of PAIGB mRNA in mouse calvariae; format: in vivo; conditions: Swiss Webster mice, 100 μg/kg/day sc, 30 days
Procedure: In situ analysis of PAIGB mRNA expression can be assessed in various animal species including human bone biopsy samples or from mouse, rat, dog bone samples etc., that have been treated with bone forming agents. Swiss Webster mice that have been treated with 100 μg/kg/day PTH 1-34 subcutaneously or 30 days. Mouse calvariae were gently dissected and fixed in 4% paraformaldehyde. Following fixation, the bones were decalcified in TBD-2 decalcifying agent (Shandon Lipshaw, Pittsburgh, Pa.) for 7-8 hrs then dehydrated in graded alcohol. The calvariae was subsequently bisected perpendicular to the sagittal suture through the central portion of the parietal bones parallel to the lambdoidal and coronal sutures and embedded in paraffin (femur and tibia samples are embedded longitudinally in paraffin). Four to six 5 μm-thick representative, non-consecutive step sections were cut for further analysis. Selected sections were stained with hematoxylin and eosin (Shandon Lipshaw, Pittsburgh, Pa.) and adjacent section were used for in situ hybridization. […] The expression of mRNA are evaluated using a Nikon microscope with either bright or dark field.

PAIGB expression = experiment: RADE differential display of rat tibia RNA after PTH administration; format: in vivo; conditions: eight days
Procedure: Total RNA was isolated and each RNA sample was then treated with 20 units of DNAse (Ambion, Austin, Tex.). After RNA cleaning, samples were split into three reverse transcription (RT) reactions. Each RT reaction contained 4 μg RNA, 1000 units SuperScript II RT (Gibco), 100 μM dNTPs and 0.2 μM anchor primer in a final volume of 100 μl. Anchor primers had the sequence (5′→3′) T11A, T11C, or T11G. For differential display each cDNA sample was subjected, in duplicate, to 80 PCR reactions using the appropriate anchor primer and one of 80 arbitrary primers (HAPs 1-80; Genhunter). PCR reactions contained in a final volume of 20 ul, 20 ng cDNA, 2 μM dNTPs, 0.2 μM anchor primer, 0.2 μM arbitrary primer, 1 unit Taq polymerase (Applied Biosystems (AB), Foster City, Calif.), and 2.5 μCi [α-^33P]dATP (2000 Ci/mmole). PCR conditions were as follows: 1 cycle of 92° C./2′, 40 cycles of [92° C./15″, 40° C./2′, 72° C./30″], and 1 cycle of 72° C./5′. PCR samples were then loaded onto a 50 cm 6% sequencing gel and run at 200 volts constant. Differentially expressed bands were excised from the dried gel. […]
Female Wister rats 4 weeks of age were treated with vehicle (saline) and human PTH (1-34) at a dose of 40 μg/kg of body weight for eight days. […] Three weeks post OVX total BMD was measured to determine if osteopenia was established. […]

## human PTH (1-34)
PAIGB mRNA
  PAIGB mRNA expression in calvariae (in situ hybridization): induced in osteoblastic cells adjacent to the bone surface in the periosteum
PAIGB expression; continuous administration, 40 μg/kg/day
  PAIGB expression in bone RNA (RADE): did not induce any changes
PAIGB expression; intermittent injection, 40 μg/kg
  PAIGB expression in bone RNA (RADE): induced
